Results from US20190388437A1, “COMPOSITIONS AND METHODS FOR TREATING BONE AND JOINT INFECTIONS” (priority 2014, published 2019).
Converted amounts (≈) assume the structure as drawn. Where two headings read alike, the source gives them in different places.

How the values were obtained:
[1] = Single oral dose bioavailability study, fed/fasted crossover; format: in vivo, healthy subjects (human)
Method: Single oral dose bioavailability study of CEM-102 (sodium fusidate). […] This was a single-center, Phase 1, double-blind, randomized, 3 period, fed/fasted crossover bioequivalence study designed to evaluate the relative bioavailability and safety and tolerability of a single oral dose of CEM-102 500 mg compared to Fucidin® 500 mg in healthy subjects. Subjects were randomized in equal numbers to the 4 treatment sequences (Table 3).
Study Period 1, 2, and 3 (Days 1, 15, and 29): One dose of study drug 500 mg (2×250 mg) of CEM-102 or Fucidin® was given at 8:00 AM (˜30 minutes). On Day 1 of Study Periods 1 and 2 (Days 1 and 15), subjects fasted overnight for at least 10 hours prior to dosing. On Day 1 of Study Period 3 (Day 29), subjects were given a high fat caloric meal which was to be entirely consumed within 30 minutes prior to study drug administration.
Blood samples for assay of plasma concentrations were collected on Days 1, 15 and 29 at pre-dose and 0.5, 1, 1.5, 2, 2.5, 3, 3.5, 4, 6, 8, 12, 16, 24, 36, and 48 hours after the dose. Plasma concentrations were assayed at MicroConstants, Inc. in San Diego, Calif. using a validated liquid chromatography with dual tandem mass spectrometry (LC/MS/MS) method with a lower limit of quantitation (LLOQ) of 20.0 ng/mL

[2] = test system: methicillin-resistant S. aureus (MRSA) strain USA 300; test: CLSI MIC against MRSA strain USA 300; format: cell-based; conditions: Staphylococcus aureus
Method: (§1) Pharmacodynamics of CEM-102 against Methicillin-Resistant Staphylococcus aureus Using In vitro Models. A hollow fiber model was used to evaluate CEM-102 resistance potential in methicillin-resistant S. aureus (MRSA) strain USA 300 (Network of Antimicrobial Resistance in Staphylococcus aureus (MRSA), Chantilly, Va.). USA 300 is a highly virulent strain of MRSA and is the most common community-associated MRSA isolate in the USA. MIC values were determined in accordance with Clinical and Laboratory Standards Institute (CLSI).

[3] = test system: methicillin-resistant S. aureus (MRSA) strain USA 300; format: cell-based, Staphylococcus aureus
Method: as §1
The hollow fiber model comprised a two-compartment hollow fiber model (Louie et al. Antimicrob Agents Chemother 52:2486-2496(2008)) consisting of a volume of 15 mL in the central compartment, with multiple ports for the removal of broth, delivery of antibiotics, and collection of bacterial and antimicrobial samples. […] All experiments were performed in duplicate.
Hollow fibers contain 15 ml of media was prepared and inoculated with 10^6 colony forming units (CFU)/mL USA 300 bacteria. One of three different dosing regimens of […] was then applied to the fibers: (1) […] q12h; (2) 1200 mg/ml×2, followed by […], q12h; (3) 1500 mg/ml×2, followed by […], q12h.

## CC(=O)O[C@H]1C[C@@]2(C)[C@@H](C[C@@H](O)[C@H]3[C@@]4(C)CC[C@@H](O)[C@@H](C)[C@@H]4CC[C@@]32C)/C1=C(\CCC=C(C)C)C(=O)O [FA, fusidic acid]
[1]; 500 mg, fasting
  total exposure (AUC): ~318 µg·h/mL
[1]; 500 mg, fed
  total exposure (AUC): approximately 285 μg·h/mL
[1]; human, in vivo, po
  tmax, median: ~3.00 h
[1]; human, in vivo, po, 500 mg
  t1/2, arithmetic mean ± SD: ~11.8 h
[1]; single oral 500 mg (2×250 mg), fasting
  tmax, median: 3.00 h
[1]; single oral 500 mg (2×250 mg), fed
  tmax, median: 3.50 h
[2]
  MIC: 0.25 µg/mL (≈ 0.484 µM)
[3]; 600 mg q12h
  outcome of treatment: regrowth and development of resistance by 24 h and 48 h
[3]; 1200 mg×2 then 600 mg q12h
  reduction of bacterial counts: ~2 logs
  time of rebound: 72 h
[3]; 1500 mg×2 then 600 mg q12h
  killing: over 2.5 log
  resistance suppressed until: > 72 h
  time of rebound: 144 h
